Results on twelve compounds are retold here after PubChem BioAssay (NCI).

Among the test systems are CAKI-1 renal; HCT-116 colon; HCT-15 colon; HT29 colon; MOLT-4 leukemia; OVCAR-3 ovarian; PC-3 prostate; SF-295 CNS; SK-MEL-5 melanoma; SNB-19 CNS; UO-31 renal; RXF 393 renal; SR leukemia.
Holding throughout (experiment): NCI tumour cell line growth inhibition, 48 h

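Tested at 5 concentrations; 48 h exposure; 96-well plates; endpoints linearly interpolated, else capped at highest concentration. TGI marks complete inhibition of growth.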

On to `COc1ccc(NC(C)=O)cc1C1CCC(=O)N1` (centres undefined), for which the TGI in the test with CAKI-1 renal, in the test on HCT-116 colon, with HCT-15 colon, with HT29 colon, in the test with MOLT-4 leukemia and in the test on OVCAR-3 ovarian was more than 100 µM in each case. Moreover, the TGI in the test with PC-3 prostate, in the test with SF-295 CNS, in the test on SK-MEL-5 melanoma, in the test with SNB-19 CNS and with UO-31 renal was more than 100 µM throughout.

Regarding `O=c1oc2ccccc2c(O)c1C(c1ccc(/C=C/c2ccccc2)cc1)c1c(O)c2ccccc2oc1=O`, the TGI is 61.3 µM in the test with CAKI-1 renal; more than 100 µM with HCT-116 colon; more than 100 µM in the test on HCT-15 colon; 37.2 µM in the test with HT29 colon; 66.8 µM with MOLT-4 leukemia; more than 100 µM with OVCAR-3 ovarian. The TGI with PC-3 prostate is more than 100 µM; with SK-MEL-5 melanoma, 74.4 µM; in the test with SNB-19 CNS, more than 100 µM; in the test on UO-31 renal, 41.1 µM.

With `Cc1cc(NCCCCCCCCCC[n+]2c(C)cc(N)c3ccccc32)c2ccccc2n1`, the TGI was 30.7 µM with CAKI-1 renal; 11.7 µM in the test with HCT-116 colon; 18.4 µM with HCT-15 colon; more than 100 µM in the test on HT29 colon; 5.23 µM in the test on MOLT-4 leukemia; 65.9 µM with OVCAR-3 ovarian. In addition, the TGI is 13.7 µM in the test with PC-3 prostate; more than 100 µM in the test with RXF 393 renal; 13.6 µM in the test on SF-295 CNS; 0.695 µM in the test on SK-MEL-5 melanoma; 26.4 µM in the test with UO-31 renal.

On to `CC1(C)CCC[C@@]2(C)C1CC[C@H]1CC(O)C3(C)CCC12C3` (some centres undefined), for which the TGI with CAKI-1 renal turned out to be 32 µM; in the test on HCT-116 colon it was 31 µM; with HCT-15 colon, 32.9 µM; in the test on HT29 colon, 32.1 µM; with MOLT-4 leukemia, 44.5 µM; in the test with OVCAR-3 ovarian, 30.7 µM. The TGI with RXF 393 renal was determined as 26.1 µM; in the test on SK-MEL-5 melanoma, 31.4 µM; in the test with SNB-19 CNS, 31.9 µM; with SR leukemia, 46.7 µM; in the test with UO-31 renal, 33.3 µM.

`NC(=S)N/N=C(\C(=O)Nc1cccc([N+](=O)[O-])c1)c1nc2ccc([N+](=O)[O-])cc2[nH]c1=O`: the TGI in the test with HCT-116 colon, in the test with HCT-15 colon, in the test on HT29 colon, in the test on MOLT-4 leukemia, in the test with RXF 393 renal and in the test on SF-295 CNS was more than 100 µM in each case. Further, the TGI in the test on SK-MEL-5 melanoma, with SNB-19 CNS and in the test on UO-31 renal was more than 100 µM throughout.

Turning to `CCCn1c(SCC)c2cc3cc4ccccc4cc3cc2c1-c1nc(F)nc(F)n1`, the TGI in the test with CAKI-1 renal, in the test on HCT-116 colon, in the test on HCT-15 colon, with HT29 colon, with MOLT-4 leukemia and with OVCAR-3 ovarian was more than 100 µM each time. The TGI in the test with RXF 393 renal, in the test with SF-295 CNS, in the test on SK-MEL-5 melanoma, with SNB-19 CNS, in the test on SR leukemia and with UO-31 renal was more than 100 µM each time.

In the case of `O=C(c1ccco1)N(C(=S)N1CCN(c2ccccn2)CC1)C1CCCCC1`, the TGI with CAKI-1 renal, in the test with HCT-116 colon, in the test on HCT-15 colon, in the test on HT29 colon, in the test with MOLT-4 leukemia and in the test on OVCAR-3 ovarian was more than 100 µM in each case. Also, the TGI in the test with RXF 393 renal, with SF-295 CNS, with SK-MEL-5 melanoma, in the test with SNB-19 CNS, in the test on SR leukemia and in the test on UO-31 renal was more than 100 µM in each case.

`COC(=O)C(=O)C(C(=O)C(=O)Nc1ccccc1C(C)=O)c1nc2ccc(C(=O)c3ccccc3)cc2[nH]c1=O` (centres undefined): the TGI in the test with CAKI-1 renal, in the test with HCT-116 colon, in the test on HCT-15 colon, with HT29 colon, with MOLT-4 leukemia and with OVCAR-3 ovarian was more than 100 µM each time. Moreover, the TGI with PC-3 prostate, in the test with RXF 393 renal, in the test with SF-295 CNS, in the test with SK-MEL-5 melanoma, in the test on SNB-19 CNS and in the test with UO-31 renal was more than 100 µM each time.

As for `CC(C)C1CCC/C=C/C=C/C=C/C=C/C(OC2OC(C)C(O)C(N)C2O)CC2OC(O)(CC(O)CC(O)C(O)CCC(=O)O1)CC(O)C2C(=O)O` (centres undefined), the TGI with CAKI-1 renal, in the test with HCT-116 colon, in the test with HCT-15 colon, in the test with HT29 colon, in the test with MOLT-4 leukemia and in the test with OVCAR-3 ovarian was more than 52.5 µM throughout. Further, the TGI with SF-295 CNS, in the test on SK-MEL-5 melanoma, in the test on SNB-19 CNS, with SR leukemia and with UO-31 renal was more than 52.5 µM each time.

On to `Cn1c(Nc2ccccc2)c(C=Nc2ccccc2)c(=O)n(C)c1=O`, for which the TGI in the test on HCT-116 colon, in the test with HT29 colon, with MOLT-4 leukemia, in the test on OVCAR-3 ovarian, in the test with PC-3 prostate and in the test with RXF 393 renal was more than 100 µM throughout. Besides, the TGI in the test with SF-295 CNS and with UO-31 renal was more than 100 µM throughout.

As to `COc1cc(C2c3cc4c(cc3OC(Nc3ccccc3)C2C)OCO4)cc(OC)c1OC` (centres undefined), the TGI was more than 100 µM in the test on CAKI-1 renal; more than 33 µM with HCT-116 colon; more than 21.6 µM in the test with HCT-15 colon; more than 100 µM with HT29 colon; 8.28 µM with MOLT-4 leukemia; more than 100 µM in the test on PC-3 prostate. Further, the TGI is more than 100 µM in the test with RXF 393 renal, 3.52 µM with SF-295 CNS, more than 100 µM in the test with SNB-19 CNS and more than 100 µM in the test on UO-31 renal.

For `O=C(c1cccs1)N(C(=S)N1CCN(c2ccccn2)CC1)C1CCCCC1`, the TGI in the test with CAKI-1 renal, with HCT-116 colon, with HCT-15 colon, in the test with HT29 colon, with MOLT-4 leukemia and in the test with OVCAR-3 ovarian was more than 100 µM in each case. Also, the TGI in the test with RXF 393 renal, in the test on SF-295 CNS, in the test with SK-MEL-5 melanoma, in the test on SNB-19 CNS, in the test on SR leukemia and in the test with UO-31 renal was more than 100 µM throughout.
